# Assay results as given in US20240108702A1, “Use Of Naturally Occurring Cyclic Peptides For Treatment Of SARS-COV-2 Infection” (The University of Southern California, priority 2021, published 2024).
# Like-named read-outs stand apart in the source and are kept apart here. Where a SMILES comes first, the peptide text is derived from it. Bridges are numbered along the chain shown (N, C = ends).
# Assays:
# [1] = Single i.v. bolus PK in a vervet monkey (pilot safety study); type: in vivo, vervet/African green monkey (Chlorocebus aethiops sabaeus); details: single 3 mg/kg i.v. bolus
# Protocol: Vervet monkey studies: As a pilot safety study, a single dose of Peptide 1 (SEQ ID NO. 1) at 3 mg/kg was administered to an adult male vervet/African green monkey (Chlorocebus aethiops sabaeus) via i.v. bolus. Serial blood samples were collected at 0.5, 1, 4, 8, 24, 48, 72, 96, 120, and 192 h post-administration.
# Bioanalytical analysis: Clarified plasma samples from mice were directly diluted into 5% formic acid/5% acetonitrile. Quantitative analysis of Peptide 1 (SEQ ID NO. 1) was performed by LC-MS/MS with reverse-phase liquid chromatography (XBridge™ BEH phenyl 3.5 μm 3×100 mm column, Waters #186003328) on an Acquity™ H-Class UPLC (Waters) coupled to a Xevo™ TQ-S tandem electrospray mass spectrometry running MassLynx™ V4.1 (Waters). Quantitative mass spectroscopy was performed by multiple-reaction monitoring transition 417.32>517.21, with the area under the curve determined by TargetLynx™ (Waters). A synthetic theta defensin-like peptide was used as an internal standard (IS). The lower limit of quantification (LLOQ) of the assay was 1 ng/mL. Intra- and inter-assay precision (percent coefficient of variation [CV]) was ≤3%, and intra and interassay accuracy (% relative error) was ≤5%. Plasma Peptide 1 (SEQ ID NO. 1) concentration analyses for rats and cynomolgus monkey studies were performed at MicroConstants (San Diego, CA) by HPLC using a Mac-Mod™ Analytical ACE C4 column. The mobile phase was nebulized using heated nitrogen in Z-Spray source/interface set to electrospray positive ionization mode, and the compound was detected using MS/MS (LLOQ=10.0 ng/mL). Details of the method are summarized in the MicroConstants method No. MN20038. Clarified plasma samples from a serially sampled vervet were quantified by ultra-performance liquid chromatography Waters Acquity H-Class UPLC. […] Peptide 1 (SEQ ID NO. 1) peak and mass confirmation was performed on post PDA eluent using a Micromass Quattro Ultima™ mass spectrometer with MassLynx™ 4.1 (Waters). The lower limit of quantitation (LLOQ) ranged from 10-30 ng/mL (determined by sample background) to an upper limit of 50 ug/mL. RTD-2 (10 ug/mL) was used as an internal standard. Intra- and interassay precision (% coefficient of variation [CV]) was ≤3%, and intra and interassay accuracy (% relative error) was ≤5%.
# Pharmacokinetic analysis: Non-compartmental analysis (NCA) was performed using Phoenix WinNonlin™ (version 8.3.1, Certara USA, Inc.; Princeton NJ) to determine the PK parameters in mice, rats, cynomolgus monkeys, and the vervet. Nominal sampling times were used in the analysis, and data below the lower limit of quantification of the assay were excluded from the analysis. The maximum plasma concentration (Cmax) was determined from visual inspection of the data. In addition, the following parameters were calculated: terminal elimination rate constant (λz), area under the curve extrapolated to infinity (AUC0-∞), area under the curve to dosing interval (AUCτ), mean residence time (MRT), clearance (CL), and volume of distribution at steady state (Vss). AUC was calculated using the linear up, log down method, and the λz was calculated using up to the last four data points of the log-linear terminal phase of the concentration-time profile. Due to sparsely sampled data in mice and rats, the sparse sampling calculation methodology in Phoenix WinNonlin™ was used, which generated a single estimate without standard error for all parameters, except for Cmax. For rats and cynomolgus monkeys, all parameters were calculated using sampling times relative to the beginning of the i.v. infusion.
# in vivo [2] = details: both, cynomolgus monkey; for AUC(0-inf) / AUC / clearance / Cmax / MRT inf / Vd: iv, cynomolgus; for AUC(0-inf): AUC0-∞; for AUC: AUCτ; for clearance: CL; for MRT inf: MRTinf; for Vd: Vss
# in vivo [3] = details: both, Sprague-Dawley, rat, iv
# [4] = rats
# [5] = 0.3 mg/kg, 0.3 mg/kg i.v., Day 1, mean
# [6] = 1 mg/kg, 1 mg/kg i.v., Day 1, mean
# [7] = 3 mg/kg, 3 mg/kg i.v., Day 1, mean
# [8] = 5 mg/kg, 5 mg/kg i.v., Day 1, mean
# [9] = 5 mg/kg/day, 5 mg/kg/day i.v., Day 10, mean
# [10] = 10 mg/kg, 10 mg/kg i.v., Day 1, mean
# [11] = 10 mg/kg/day, 10 mg/kg/day i.v., Day 10, mean
# [12] = 15 mg/kg, 15 mg/kg i.v., Day 1, mean
# [13] = 15 mg/kg/day, 15 mg/kg/day i.v., Day 4, mean
# [14] = 15 mg/kg/day, 15 mg/kg/day i.v., Day 7, mean
# [15] = 15 mg/kg/day, 15 mg/kg/day i.v., Day 10, mean
smiles,measurement,setting,value
"CC[C@H](C)[C@@H]1NC(=O)[C@@H]2CSSC[C@H](NC(=O)[C@H](CCCNC(=N)N)NC(=O)[C@@H]3CSSC[C@H](NC1=O)C(=O)N[C@@H]([C@@H](C)O)C(=O)N[C@@H](CCCNC(=N)N)C(=O)NCC(=O)N[C@@H](Cc1ccccc1)C(=O)N3)C(=O)N[C@@H](CC(C)C)C(=O)N[C@H]1CSSC[C@H](NC(=O)[C@H](C(C)C)NC(=O)CNC(=O)[C@H](CCCNC(=N)N)NC(=O)[C@H](CCCNC(=N)N)NC1=O)C(=O)N[C@@H](CCCNC(=N)N)C(=O)N2 [Peptide 1] (cyclo(GFCRCLCRRGVCRCICTR); disulfide 3-16, 5-14, 7-12)",AUC,"[1]; male, monkey, plasma, iv",21900 ng·h/mL
same,AUC(0-inf),"[1]; male, monkey, plasma, iv",22100 ng·h/mL
same,Cmax,"[1]; male, monkey, plasma, iv",5190 ng/mL
same,MRT,"[1]; male, monkey, plasma, iv",4.71 h
same,clearance,"[1]; male, monkey, plasma, iv",2.27 mL/min/kg
same,Vd,"[1]; male, monkey, plasma, iv, read-out: Vss",0.639 L/kg
same,λz,[1],0.204 h⁻¹
same,half-life,in vivo [2],572 min
same,half-life,in vivo [2]; 15 mg/kg,2830 min
same,AUC(0-inf),in vivo [2]; [5],617 ng·h/mL
same,AUC,in vivo [2]; [5],591 ng·h/mL
same,clearance,in vivo [2]; [5],8.3 mL/min/kg
same,Cmax,in vivo [2]; [5],582 ng/mL
same,MRT inf,in vivo [2]; [5],1.24 h
same,Vd,in vivo [2]; [5],0.626 L/kg
same,AUC(0-inf),in vivo [2]; [6],3880 ng·h/mL
same,AUC,in vivo [2]; [6],3820 ng·h/mL
same,clearance,in vivo [2]; [6],4.43 mL/min/kg
same,Cmax,in vivo [2]; [6],2560 ng/mL
same,MRT inf,in vivo [2]; [6],1.82 h
same,Vd,in vivo [2]; [6],0.486 L/kg
same,AUC(0-inf),in vivo [2]; [7],10700 ng·h/mL
same,AUC,in vivo [2]; [7],10300 ng·h/mL
same,clearance,in vivo [2]; [7],4.78 mL/min/kg
same,Cmax,in vivo [2]; [7],4750 ng/mL
same,MRT inf,in vivo [2]; [7],4.3 h
same,Vd,in vivo [2]; [7],1.22 L/kg
same,AUC(0-inf),in vivo [2]; [8],27200 ng·h/mL
same,AUC,in vivo [2]; [8],27200 ng·h/mL
same,clearance,in vivo [2]; [8],3.13 mL/min/kg
same,Cmax,in vivo [2]; [8],10700 ng/mL
same,MRT inf,in vivo [2]; [8],2.94 h
same,Vd,in vivo [2]; [8],0.55 L/kg
same,AUC(0-inf),in vivo [2]; [9],40000 ng·h/mL
same,AUC,in vivo [2]; [9],38900 ng·h/mL
same,clearance,in vivo [2]; [9],2.27 mL/min/kg
same,Cmax,in vivo [2]; [9],11700 ng/mL
same,MRT inf,in vivo [2]; [9],4.84 h
same,Vd,in vivo [2]; [9],0.645 L/kg
same,AUC(0-inf),in vivo [2]; [10],76800 ng·h/mL
same,AUC,in vivo [2]; [10],76100 ng·h/mL
same,clearance,in vivo [2]; [10],2.38 mL/min/kg
same,Cmax,in vivo [2]; [10],26700 ng/mL
same,MRT inf,in vivo [2]; [10],4.4 h
same,Vd,in vivo [2]; [10],0.629 L/kg
same,AUC(0-inf),in vivo [2]; [11],125000 ng·h/mL
same,AUC,in vivo [2]; [11],118000 ng·h/mL
same,clearance,in vivo [2]; [11],1.48 mL/min/kg
same,Cmax,in vivo [2]; [11],27300 ng/mL
same,MRT inf,in vivo [2]; [11],7.2 h
same,Vd,in vivo [2]; [11],0.624 L/kg
same,AUC(0-inf),in vivo [2]; [12],142000 ng·h/mL
same,AUC,in vivo [2]; [12],138000 ng·h/mL
same,clearance,in vivo [2]; [12],1.9 mL/min/kg
same,Cmax,in vivo [2]; [12],46500 ng/mL
same,MRT inf,in vivo [2]; [12],5.48 h
same,Vd,in vivo [2]; [12],0.629 L/kg
same,AUC(0-inf),in vivo [2]; [13],167000 ng·h/mL
same,AUC(0-inf),in vivo [2]; [14],188000 ng·h/mL
same,AUC(0-inf),in vivo [2]; [15],213000 ng·h/mL
same,AUC,in vivo [2]; [13],140000 ng·h/mL
same,AUC,in vivo [2]; [14],154000 ng·h/mL
same,AUC,in vivo [2]; [15],173000 ng·h/mL
same,clearance,in vivo [2]; [13],1.78 mL/min/kg
same,clearance,in vivo [2]; [14],1.63 mL/min/kg
same,clearance,in vivo [2]; [15],1.72 mL/min/kg
same,Cmax,in vivo [2]; [13],31100 ng/mL
same,Cmax,in vivo [2]; [14],32800 ng/mL
same,Cmax,in vivo [2]; [15],32200 ng/mL
same,MRT inf,in vivo [2]; [13],11.8 h
same,MRT inf,in vivo [2]; [14],12.3 h
same,MRT inf,in vivo [2]; [15],12 h
same,Vd,in vivo [2]; [13],1.26 L/kg
same,Vd,in vivo [2]; [14],1.19 L/kg
same,Vd,in vivo [2]; [15],1.14 L/kg
same,NOAEL at 7 days,in vivo [3],10 mg/kg/day
same,AUCτ on Day 7 lower than AUC0-∞ on Day 1,[4]; 5 mg/kg group,22%
same,λz,"[4]; 5 mg/kg i.v., Day 1",0.056 h⁻¹
same,λz,"[4]; 5 mg/kg/day i.v., Day 7",0.104 h⁻¹
same,AUCτ on Day 7 lower than AUC0-∞ on Day 1,[4]; 10 mg/kg group,19%
same,λz,"[4]; 10 mg/kg i.v., Day 1",0.148 h⁻¹
same,λz,"[4]; 10 mg/kg/day i.v., Day 7",0.133 h⁻¹
same,λz,"[4]; 20 mg/kg i.v., Day 1",0.221 h⁻¹
same,plasma levels during recovery period,"[4]; Day 25, all but one rat",undetectable
